Assay results reported in ChEMBL document CHEMBL5108009, “Positron Emission Tomography (PET) Imaging Tracers for Serotonin Receptors” (J Med Chem, 2022).
Values belong to the compound of their own block, whether it stands above or below them.

Legend:
[1] = target: T1, 5-hydroxytryptamine receptor 1A (Rattus norvegicus, UniProt P19327); test: Displacement of [3H]-8-OH-DPAT from Sprague-Dawley rat hippocampal membrane 5HT1A receptor incubated for 10 mins by liquid scintillation analysis; assay type: cell membranes, Hippocampus
T1 sequence (P19327 whole entry): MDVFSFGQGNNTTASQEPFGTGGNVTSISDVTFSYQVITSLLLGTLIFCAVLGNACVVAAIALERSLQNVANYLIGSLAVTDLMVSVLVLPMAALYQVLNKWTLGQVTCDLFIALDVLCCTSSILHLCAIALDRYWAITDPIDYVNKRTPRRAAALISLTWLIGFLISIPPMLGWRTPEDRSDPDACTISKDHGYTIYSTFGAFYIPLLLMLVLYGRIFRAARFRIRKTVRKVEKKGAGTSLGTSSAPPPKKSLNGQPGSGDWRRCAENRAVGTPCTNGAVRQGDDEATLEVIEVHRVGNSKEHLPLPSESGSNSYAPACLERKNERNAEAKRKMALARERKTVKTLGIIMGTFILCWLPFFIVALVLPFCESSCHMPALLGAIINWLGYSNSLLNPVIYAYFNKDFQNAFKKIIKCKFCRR

[2] = Biodistribution in rat assessed as drug uptake measured as percentage of injected dose per gram of tissue relative to control; assay type: ADME, organism-based; conditions: in vivo
[3] = Drug uptake in plasma (unknown origin) as parent compound by measuring radioactivity at 30 mins postinjection relative to control; assay type: ADME, organism-based; conditions: in vivo, 0.5 h
[4] = Ratio of drug distribution in rat hippocampus to cerebellum at 30 mins postinjection; assay type: ADME, organism-based; conditions: in vivo, 0.5 h
[5] = target: T2, 5-hydroxytryptamine receptor 1A (Homo sapiens, UniProt P08908)
T2 sequence (P08908 whole entry): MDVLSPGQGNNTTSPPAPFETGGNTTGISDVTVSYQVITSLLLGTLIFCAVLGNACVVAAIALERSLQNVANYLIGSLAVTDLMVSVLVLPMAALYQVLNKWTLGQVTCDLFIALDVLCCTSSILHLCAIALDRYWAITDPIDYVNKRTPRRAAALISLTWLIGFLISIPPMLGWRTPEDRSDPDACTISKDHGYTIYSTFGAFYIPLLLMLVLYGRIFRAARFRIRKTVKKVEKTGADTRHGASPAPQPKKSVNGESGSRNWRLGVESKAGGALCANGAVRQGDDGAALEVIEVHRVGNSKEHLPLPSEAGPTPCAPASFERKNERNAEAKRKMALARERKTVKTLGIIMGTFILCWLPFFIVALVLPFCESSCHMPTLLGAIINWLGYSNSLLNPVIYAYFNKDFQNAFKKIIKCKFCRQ

[6] = target: T1, 5-hydroxytryptamine receptor 1A; test: Displacement of [3H]-8-OH-DPAT from rat hippocampal membrane 5HT1A receptor by CEREP assay; assay type: cell membranes, Hippocampus
[7] = target: Alpha-1A adrenergic receptor (Homo sapiens) (UniProt P35348); test: Binding affinity to alpha 1A adrenergic receptor (unknown origin); conditions: filed as antagonist
[8] = target: 5-hydroxytryptamine receptor 7 (Rattus norvegicus, UniProt P32305); test: Binding affinity to rat 5-HT7 receptor assessed as inhibition constant
Sequence of 5-hydroxytryptamine receptor 7 (P32305 whole entry): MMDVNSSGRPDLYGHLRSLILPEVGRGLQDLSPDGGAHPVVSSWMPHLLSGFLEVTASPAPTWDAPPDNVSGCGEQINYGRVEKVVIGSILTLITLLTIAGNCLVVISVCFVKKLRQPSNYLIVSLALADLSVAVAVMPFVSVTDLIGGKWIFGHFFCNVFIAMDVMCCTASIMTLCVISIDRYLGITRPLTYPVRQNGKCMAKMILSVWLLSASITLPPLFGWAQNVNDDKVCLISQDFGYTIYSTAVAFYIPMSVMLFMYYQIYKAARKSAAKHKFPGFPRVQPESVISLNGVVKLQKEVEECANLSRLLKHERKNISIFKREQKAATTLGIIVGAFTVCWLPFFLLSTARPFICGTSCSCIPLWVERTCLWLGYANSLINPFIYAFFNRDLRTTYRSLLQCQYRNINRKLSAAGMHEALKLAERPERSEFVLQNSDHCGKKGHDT

[9] = target: T3, 5-hydroxytryptamine receptor 2C (Homo sapiens, UniProt P28335); test: Binding affinity to human 5-HT2C assessed as inhibition constant
T3 sequence (P28335 whole entry): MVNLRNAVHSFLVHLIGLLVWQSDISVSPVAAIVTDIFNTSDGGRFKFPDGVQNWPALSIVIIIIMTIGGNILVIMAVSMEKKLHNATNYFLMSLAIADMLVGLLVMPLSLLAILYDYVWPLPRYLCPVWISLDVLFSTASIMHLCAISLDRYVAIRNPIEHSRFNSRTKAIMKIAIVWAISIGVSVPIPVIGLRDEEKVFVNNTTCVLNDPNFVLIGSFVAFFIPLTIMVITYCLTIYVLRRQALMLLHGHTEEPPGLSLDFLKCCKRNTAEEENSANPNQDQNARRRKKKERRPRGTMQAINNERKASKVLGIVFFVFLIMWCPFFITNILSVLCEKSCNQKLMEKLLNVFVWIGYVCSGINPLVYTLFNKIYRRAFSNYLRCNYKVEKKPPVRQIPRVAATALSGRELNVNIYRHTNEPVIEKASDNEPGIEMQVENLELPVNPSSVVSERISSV

[10] = target: T2, 5-hydroxytryptamine receptor 1A; remark: listed apart in the source
[11] = Drug uptake in cynomolgus monkey brain treated with WAY-100635 followed by compound 878 Ci/mmol, iv measured at 2.5 mins postinjection by PET imaging relative to control; assay type: ADME, organism-based, Macaca fascicularis; conditions: in vivo
[12] = Drug biodistribution in rat brain incubated for 30 mins by autoradiographic analysis; assay type: ADME, organism-based; conditions: in vivo, 0.5 h
[13] = Drug uptake in rat brain; assay type: ADME, tissue-based; conditions: in vivo
[14] = target: 5-hydroxytryptamine receptor 2A (Rattus norvegicus, UniProt P14842); test: Binding affinity to Wistar rat cortex membrane homogenate 5-HT2A receptor incubated for 90 mins by liquid scintillation counter analysis; assay type: cell membranes
Sequence of 5-hydroxytryptamine receptor 2A (P14842 whole entry): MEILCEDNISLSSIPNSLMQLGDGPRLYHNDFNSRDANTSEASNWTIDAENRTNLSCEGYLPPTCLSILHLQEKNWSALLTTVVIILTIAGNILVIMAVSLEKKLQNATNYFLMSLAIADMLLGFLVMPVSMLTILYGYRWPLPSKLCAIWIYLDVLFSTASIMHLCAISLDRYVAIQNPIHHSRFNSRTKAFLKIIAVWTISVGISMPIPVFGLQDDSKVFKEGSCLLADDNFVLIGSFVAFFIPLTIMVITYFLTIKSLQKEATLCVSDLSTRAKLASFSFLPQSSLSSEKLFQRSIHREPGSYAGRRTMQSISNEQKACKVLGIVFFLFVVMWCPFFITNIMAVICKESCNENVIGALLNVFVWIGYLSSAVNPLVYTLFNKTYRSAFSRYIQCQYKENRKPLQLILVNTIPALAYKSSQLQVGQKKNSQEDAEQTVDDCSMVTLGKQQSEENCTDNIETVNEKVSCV

[15] = plasma, 10 min
Description: Drug metabolism in plasma (unknown origin) assessed as parent compound remaining by measuring total radioactivity at 10 mins by HPLC analysis

[16] = Drug metabolism in plasma (unknown origin) assessed as parent compound remaining measured at 55 mins relative to control; assay type: ADME; conditions: read-out: Stability
[17] = Ratio of drug distribution in cynomolgus monkey hippocampus to cerebellum measured at 30 mins postinjection; assay type: ADME, organism-based, Macaca fascicularis; conditions: in vivo, 0.5 h
[18] = Drug uptake in cynomolgus monkey in brain administered IV measured at 7.5 mins relative to control; assay type: ADME, tissue-based, Macaca fascicularis; conditions: in vivo, 0.125 h
[19] = Ratio of drug uptake in baboon insular cortex to cerebellum at 175 mins; assay type: ADME, tissue-based, Papio; conditions: in vivo, 2.917 h
[20] = Ratio of drug uptake in baboon hippocampus to cerebellum at 175 mins; assay type: ADME, tissue-based, Papio; conditions: in vivo, 2.917 h
[21] = Ratio of drug uptake in baboon anterior cingulate cortex to cerebellum at 175 mins; assay type: ADME, tissue-based, Papio; conditions: in vivo, 2.917 h
[22] = Displacement of [3H]-8-OH-DPAT from bovine hippocampal tissue 5HT1A receptor by competitive binding assay; assay type: tissue-based, Bos taurus, Hippocampus
[23] = target: T4, Alpha-1A adrenergic receptor (Homo sapiens, UniProt P35348); test: Inhibition of alpha 1A adrenergic receptor (unknown origin)
T4 sequence (P35348 whole entry): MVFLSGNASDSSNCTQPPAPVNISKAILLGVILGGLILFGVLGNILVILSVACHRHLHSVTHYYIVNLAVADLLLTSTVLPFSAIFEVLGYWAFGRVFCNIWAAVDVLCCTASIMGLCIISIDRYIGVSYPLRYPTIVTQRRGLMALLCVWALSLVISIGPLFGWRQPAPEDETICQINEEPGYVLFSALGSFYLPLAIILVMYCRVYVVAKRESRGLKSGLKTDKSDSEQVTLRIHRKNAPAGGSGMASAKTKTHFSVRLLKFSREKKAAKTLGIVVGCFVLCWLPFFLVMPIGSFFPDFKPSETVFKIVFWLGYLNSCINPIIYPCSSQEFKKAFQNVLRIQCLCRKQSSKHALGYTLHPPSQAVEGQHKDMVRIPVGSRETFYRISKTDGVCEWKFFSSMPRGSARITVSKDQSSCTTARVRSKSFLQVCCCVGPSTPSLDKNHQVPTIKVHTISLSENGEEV

[24] = target: Serotonin 3 (5-HT3) receptor
Description: Inhibition of 5HT3 receptor (unknown origin)

[25] = Ratio of drug biodistribution in rat hippocampus to cerebellum at 30 mins postinjection; assay type: ADME, organism-based; conditions: in vivo, 0.5 h
Macaca mulatta [26] = species: Macaca mulatta; test: Binding affinity to rhesus monkey dorsal anterior cingulate cortex 5-HT1A; assay type: tissue-based; conditions: filed as antagonist, tested as the 18F-labelled form
Macaca mulatta [27] = species: Macaca mulatta; test: Binding affinity to rhesus monkey mesial temporal cingulate cortex 5-HT1A; assay type: tissue-based; conditions: filed as antagonist, tested as the 18F-labelled form

Compound: Cc1ccc2c(c1O)-c1cccc3c1C(C2)N(C)CC3 (stereo not given)
Ki [1]: 0.45 nM

Drug uptake [2]: 1.14 % ID/g
Compound: COc1ccccc1N1CCN(CCCCn2ccnc2S[11CH3])CC1

Drug uptake [3]: 20%
Ratio [4]: 5.6
Kd [5]: 0.34 nM
Compound: COc1ccccc1N1CCN(CCN(C(=O)c2ccc([18F])cc2)c2ccccn2)CC1

IC50 [6]: 0.86 nM
K [7]: 5.45 nM
Compound: COc1ccccc1N1CCN(CCCCN(C)C(=O)c2cnc(SC)n2C)CC1

Ki [8]: 13 nM
Compound: CCC1(CCCCN2CCN(c3cccc(OCCF)c3)CC2)C(=O)Nc2ccccc21 (stereo not given)

Ki [9]: 71 nM
Compound: COc1c(OCCF)cccc1[C@H](O)C1CCN(CCc2ccc(F)cc2)CC1

Ki [10]: 2.3 nM
Drug uptake [11]: 3%
Compound: CC1(C(=O)N(CCN2CCN(c3ccccc3O[11CH3])CC2)c2ccccn2)CCCCC1

Drug uptake [12]: 30%
Compound: [O-][S+](c1ccc([18F])cc1)C1CCN(CCc2ccc(F)cc2F)CC1 (stereo not given)

SUV [13]: 2
Ki [10]: 0.98 nM
Compound: COc1ccc2cccc(N3CCN(CCNC(=O)c4ccc([18F])cc4)CC3)c2c1

Ki [14]: 198 nM
Compound: [O-][S+](c1ccc(F)cc1)C1CCN(CCc2ccc(F)cc2F)CC1 (stereo not given)

Stability [15]: < 10%
Compound: O=[11C](C1CCCCC1)N(CCN1CCN(c2ccccc2O)CC1)c1ccccn1

remaining at 55 min [16]: 20%
Ratio [17]: 1.4
Drug uptake [18]: 4.33%
Compound: COc1ccccc1N1CCN(CCN(C(=O)C2CCCCC2)c2cccc([18F])n2)CC1

Ratio [19]: 1.8
Ratio [20]: 4
Ratio [21]: 2.3
Compound: Cn1c(=O)cnn(CCCCN2CCN(c3ccccc3OCC[18F])CC2)c1=O

Ki [22]: 24 nM
Compound: [11CH3]O[C@H]1CC[C@@H](C(=O)N(CCN2CCN(c3ccccc3O)CC2)c2ccccn2)CC1

IC50 [23]: 43 nM
Compound: [11CH3]Oc1cccc2c1CCCC2CCCN1CCN(c2ccccc2)CC1 (stereo not given)

IC50 [24]: 6.6 nM
Compound: COc1cn2cccc2c(N2CCN(Cc3ccc(F)cc3)CC2)n1

Ratio [25]: 5.5
Ki [10]: < 1 nM
Compound: COc1ccccc1N1CCN(CCN(C(=O)c2ccc([18F])cc2)c2ncccn2)CC1

Bmax (Macaca mulatta [26]): 36 pmol/mL
Bmax (Macaca mulatta [27]): 42 pmol/mL
Compound: COc1ccccc1N1CCN(CCN(c2ccccn2)C(=O)[C@H]2CC[C@H](CF)CC2)CC1

Ki [8]: 5.6 nM
Compound: CC1(CCCCN2CCN(c3cccc(OCCF)c3)CC2)C(=O)Nc2ccccc21 (stereo not given)
